Like-named read-outs stand apart in the source and are kept apart here.
Legend:
non-expressing oocytes [1] = test: cells; format: cell-based, Xenopus laevis; settings: non-expressing oocytes, total [3H]CQ transport, normalised to the oocyte type control
Outline: (§1)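 Using pH 5.5 ND96 at 27.5 °C, uptake is followed for 1.5 h, stopped with ice-cold buffer, and quantified as accumulated radioactivity per oocyte after SDS lysis.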

PfCRT^3D7 [2] = biological target: T1, PfCRT^3D7 (Plasmodium falciparum, UniProt Q8IBZ9); test: cell-based; format: cell-based; settings: PfCRT3D7 oocytes, total [3H]CQ transport, normalised to the oocyte type control
Outline: as §1

PfCRT^Dd2 [3] = biological target: T2, PfCRT^Dd2 (Plasmodium falciparum, UniProt Q9N623, A220S/I356T/K76T/M74I/N326S/N75E/Q271E/R371I); test: [3H]CQ uptake into Xenopus oocytes, cis-inhibition by unlabelled solute; format: cell-based; settings: PfCRTDd2 oocytes, background [3H]CQ accumulation subtracted, normalised to oocyte type control
Outline: as §1

PfCRT^Ecu1110 [4] = biological target: T3, PfCRT^Ecu1110 (Plasmodium falciparum, UniProt Q9N623, A220S/I356L/K76T/N326D); test: as above; format: cell-based; settings: for Uptake of [3H]CQ (% PfCRTEcu1110 control), cis-inhibition / PfCRT-mediated [3H]CQ transport, cis-inhibition (% PfCRTEcu1110 control): PfCRTEcu1110 oocytes; for Uptake of [3H]CQ (% PfCRTEcu1110 control), cis-inhibition: total [3H]CQ transport, normalised to the oocyte type control; for PfCRT-mediated [3H]CQ transport, cis-inhibition (% PfCRTEcu1110 control): background [3H]CQ accumulation subtracted, normalised to oocyte type control; for [3H]CQ transport (% PfCRTEcu1110 control), cis-inhibition, PfCRTEcu1110: PfCRT-mediated component (background subtracted), sheet title says normalised to PfCRTDd2 control, mean ± SEM, SEM
Outline: as §1

non-expressing oocytes [5] = format: cell-based, Xenopus laevis; settings: non-expressing oocytes, total [3H]CQ transport, normalised to the oocyte type control
Outline: (§2)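 Oocytes (ten per treatment, ≥4 independent frogs/days) were preloaded by injecting VF-6 in 25 nL ND96 at pH 5.0, 5.5, 6.0 or 7.0, or Na^+-free choline buffer, then uptake run 1.5 h, 27.5 °C, ND96 pH 5.5 by default. Internal concentrations assumed ~400 nL oocyte volume.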

PfCRT^3D7 [6] = biological target: T1, PfCRT^3D7; test: cell-based; format: cell-based; settings: PfCRT3D7 oocytes; for Uptake of [3H]CQ (% PfCRT3D7 control), trans-stimulation: total [3H]CQ transport, normalised to the oocyte type control; for PfCRT-mediated [3H]CQ transport, trans-stimulation (% PfCRT3D7 control): normalised to oocyte type control
Outline: as §2

PfCRT^Dd2 [7] = biological target: T2, PfCRT^Dd2; test: cell-based; format: cell-based; settings: for Uptake of [3H]CQ (% PfCRTDd2 control), trans-stimulation / PfCRT-mediated [3H]CQ transport, trans-stimulation (% PfCRTDd2 control): PfCRTDd2 oocytes; for Uptake of [3H]CQ (% PfCRTDd2 control), trans-stimulation: total [3H]CQ transport, normalised to the oocyte type control; for PfCRT-mediated [3H]CQ transport, trans-stimulation (% PfCRTDd2 control): normalised to oocyte type control; for [3H]CQ transport (% PfCRTDd2 control), trans-stimulation, PfCRTDd2: PfCRT-mediated component (background subtracted), mean ± SEM, SEM
Outline: as §2

PfCRT^Ecu1110 [8] = biological target: T3, PfCRT^Ecu1110; test: cell-based; format: cell-based; settings: for Uptake of [3H]CQ (% PfCRTEcu1110 control), trans-stimulation / PfCRT-mediated [3H]CQ transport, trans-stimulation (% PfCRTEcu1110 control): PfCRTEcu1110 oocytes; for Uptake of [3H]CQ (% PfCRTEcu1110 control), trans-stimulation: total [3H]CQ transport, normalised to the oocyte type control; for PfCRT-mediated [3H]CQ transport, trans-stimulation (% PfCRTEcu1110 control): normalised to oocyte type control; for [3H]CQ transport (% PfCRTDd2 control), trans-stimulation, PfCRTEcu1110: PfCRT-mediated component (background subtracted), sheet title says normalised to PfCRTDd2 control, mean ± SEM, SEM
Outline: as §2

PfNT1 = biological target: T4, PfNT1 (Plasmodium falciparum, UniProt Q8IDM6); test: cell-based; format: cell-based; settings: PfNT1 oocytes, total [3H]CQ transport, normalised to the oocyte type control
T4 construct: expressed in transfected cells; host or cells: Xenopus laevis oocytes (stage V-VI), cRNA-injected
Outline: as §2

[9] = [test solute]i = 45 mM (30 mM for some solutes due to solubility)
[10] = [test solute]i = 5 mM (intracellular)
[11] = [test solute]i = 45 mM (intracellular; 30 mM for some solutes due to solubility)
[12] = [test solute]i = 5 mM (injected)

T1 sequence (Q8IBZ9 59-398): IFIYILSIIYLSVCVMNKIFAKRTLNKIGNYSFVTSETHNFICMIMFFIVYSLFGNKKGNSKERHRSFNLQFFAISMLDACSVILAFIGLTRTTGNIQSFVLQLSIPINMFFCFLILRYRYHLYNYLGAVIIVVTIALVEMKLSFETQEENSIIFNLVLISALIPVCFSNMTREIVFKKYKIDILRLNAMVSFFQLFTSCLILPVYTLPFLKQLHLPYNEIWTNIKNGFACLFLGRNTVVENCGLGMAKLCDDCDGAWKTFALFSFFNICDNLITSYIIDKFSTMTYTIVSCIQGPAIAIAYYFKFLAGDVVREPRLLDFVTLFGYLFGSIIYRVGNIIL
T3 sequence (Q9N623 whole entry A220S/I356L/K76T/N326D): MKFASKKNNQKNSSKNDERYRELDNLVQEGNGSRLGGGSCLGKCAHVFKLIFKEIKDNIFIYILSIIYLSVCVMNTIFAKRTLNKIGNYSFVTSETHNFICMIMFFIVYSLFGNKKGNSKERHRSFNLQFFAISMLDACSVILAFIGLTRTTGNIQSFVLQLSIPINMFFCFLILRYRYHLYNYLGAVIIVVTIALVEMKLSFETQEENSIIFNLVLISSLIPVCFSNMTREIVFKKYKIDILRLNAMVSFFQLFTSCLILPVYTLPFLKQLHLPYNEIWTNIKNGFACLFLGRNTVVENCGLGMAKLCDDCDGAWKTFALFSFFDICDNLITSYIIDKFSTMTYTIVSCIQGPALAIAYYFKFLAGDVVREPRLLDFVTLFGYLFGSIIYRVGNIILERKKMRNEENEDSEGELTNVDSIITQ
T2 sequence (Q9N623 whole entry A220S/I356T/K76T/M74I/N326S/N75E/Q271E/R371I): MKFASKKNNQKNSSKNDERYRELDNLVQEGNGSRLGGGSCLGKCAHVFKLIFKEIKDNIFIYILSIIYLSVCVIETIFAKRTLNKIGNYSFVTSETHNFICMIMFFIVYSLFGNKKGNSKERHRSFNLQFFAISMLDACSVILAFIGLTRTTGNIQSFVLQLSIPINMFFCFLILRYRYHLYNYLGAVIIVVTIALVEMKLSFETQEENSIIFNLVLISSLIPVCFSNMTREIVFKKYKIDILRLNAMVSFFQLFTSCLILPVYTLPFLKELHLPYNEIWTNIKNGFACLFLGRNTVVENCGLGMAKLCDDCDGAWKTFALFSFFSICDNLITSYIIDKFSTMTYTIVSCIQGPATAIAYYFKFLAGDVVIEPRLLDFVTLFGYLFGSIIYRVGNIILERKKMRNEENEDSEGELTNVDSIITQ
T4 sequence (Q8IDM6 whole entry): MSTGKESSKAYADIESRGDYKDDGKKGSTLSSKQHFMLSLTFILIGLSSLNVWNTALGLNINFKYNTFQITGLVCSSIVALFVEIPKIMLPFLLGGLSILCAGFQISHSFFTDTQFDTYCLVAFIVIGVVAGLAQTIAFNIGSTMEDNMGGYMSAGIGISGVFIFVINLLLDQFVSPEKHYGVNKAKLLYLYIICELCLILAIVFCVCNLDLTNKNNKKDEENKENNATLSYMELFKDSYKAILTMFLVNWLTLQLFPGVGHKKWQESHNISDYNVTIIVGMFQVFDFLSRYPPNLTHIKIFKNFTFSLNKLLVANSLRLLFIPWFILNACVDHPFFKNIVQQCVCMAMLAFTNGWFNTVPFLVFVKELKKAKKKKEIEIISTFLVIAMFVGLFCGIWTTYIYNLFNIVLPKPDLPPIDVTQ

ASLD [AD-4]
Uptake of [3H]CQ (% non-expressing oocyte control), cis-inhibition (non-expressing oocytes [1]; [test solute] = 0.5 mM): 99 ± 5.3 % non-expressing oocyte control
Uptake of [3H]CQ (% non-expressing oocyte control), cis-inhibition (non-expressing oocytes [1]; [test solute] = 1 mM): 99 ± 5.2 % non-expressing oocyte control
Uptake of [3H]CQ (% non-expressing oocyte control), cis-inhibition (non-expressing oocytes [1]; [test solute] = 2 mM): 99 ± 4.6 % non-expressing oocyte control
Uptake of [3H]CQ (% PfCRT3D7 control), cis-inhibition (PfCRT^3D7 [2]; [test solute] = 0.5 mM): 98 ± 4.4 % PfCRT3D7 control
Uptake of [3H]CQ (% PfCRT3D7 control), cis-inhibition (PfCRT^3D7 [2]; [test solute] = 1 mM): 99 ± 4.7 % PfCRT3D7 control
Uptake of [3H]CQ (% PfCRT3D7 control), cis-inhibition (PfCRT^3D7 [2]; [test solute] = 2 mM): 99 ± 6.1 % PfCRT3D7 control
PfCRT-mediated [3H]CQ transport, cis-inhibition (% PfCRTDd2 control) (PfCRT^Dd2 [3]; [test solute] = 0.5 mM): 31 ± 1.9 % PfCRTDd2 control
PfCRT-mediated [3H]CQ transport, cis-inhibition (% PfCRTDd2 control) (PfCRT^Dd2 [3]; [test solute] = 1 mM): 22 ± 0.8 % PfCRTDd2 control
PfCRT-mediated [3H]CQ transport, cis-inhibition (% PfCRTDd2 control) (PfCRT^Dd2 [3]; [test solute] = 2 mM): 12 ± 0.3 % PfCRTDd2 control
Uptake of [3H]CQ (% PfCRTEcu1110 control), cis-inhibition (PfCRT^Ecu1110 [4]; [test solute] = 0.5 mM): 49 ± 9.7 % PfCRTEcu1110 control
Uptake of [3H]CQ (% PfCRTEcu1110 control), cis-inhibition (PfCRT^Ecu1110 [4]; [test solute] = 1 mM): 32 ± 8.5 % PfCRTEcu1110 control
Uptake of [3H]CQ (% PfCRTEcu1110 control), cis-inhibition (PfCRT^Ecu1110 [4]; [test solute] = 2 mM): 26 ± 5.6 % PfCRTEcu1110 control
PfCRT-mediated [3H]CQ transport, cis-inhibition (% PfCRTEcu1110 control) (PfCRT^Ecu1110 [4]; [test solute] = 0.5 mM): 42 ± 2.1 % PfCRTEcu1110 control
PfCRT-mediated [3H]CQ transport, cis-inhibition (% PfCRTEcu1110 control) (PfCRT^Ecu1110 [4]; [test solute] = 1 mM): 28 ± 3.4 % PfCRTEcu1110 control
PfCRT-mediated [3H]CQ transport, cis-inhibition (% PfCRTEcu1110 control) (PfCRT^Ecu1110 [4]; [test solute] = 2 mM): 21 ± 1.1 % PfCRTEcu1110 control
[3H]CQ transport (% PfCRTEcu1110 control), cis-inhibition, PfCRTEcu1110 (PfCRT^Ecu1110 [4]; [test solute] = 0.5 mM): 13 ± 0.2 % PfCRTEcu1110 control
[3H]CQ transport (% PfCRTEcu1110 control), cis-inhibition, PfCRTEcu1110 (PfCRT^Ecu1110 [4]; [test solute] = 2 mM): 6.0 ± 0.03 % PfCRTEcu1110 control
Uptake of [3H]CQ (% non-expressing oocyte control), trans-stimulation (non-expressing oocytes [5]; [test solute]i = 5 mM): 100 ± 4.9 % non-expressing oocyte control
Uptake of [3H]CQ (% non-expressing oocyte control), trans-stimulation (non-expressing oocytes [5]; [9]): 98 ± 2.6 % non-expressing oocyte control
Uptake of [3H]CQ (% PfCRT3D7 control), trans-stimulation (PfCRT^3D7 [6]; [test solute]i = 5 mM): 99 ± 3.7 % PfCRT3D7 control
Uptake of [3H]CQ (% PfCRT3D7 control), trans-stimulation (PfCRT^3D7 [6]; [9]): 100 ± 2.6 % PfCRT3D7 control
PfCRT-mediated [3H]CQ transport, trans-stimulation (% PfCRT3D7 control) (PfCRT^3D7 [6]; [10]): 97 ± 2.0 % PfCRT3D7 control
PfCRT-mediated [3H]CQ transport, trans-stimulation (% PfCRT3D7 control) (PfCRT^3D7 [6]; [11]): 98 ± 3.3 % PfCRT3D7 control
Uptake of [3H]CQ (% PfCRTDd2 control), trans-stimulation (PfCRT^Dd2 [7]; [test solute]i = 5 mM): 98 ± 3.3 % PfCRTDd2 control
Uptake of [3H]CQ (% PfCRTDd2 control), trans-stimulation (PfCRT^Dd2 [7]; [9]): 97 ± 3.9 % PfCRTDd2 control
PfCRT-mediated [3H]CQ transport, trans-stimulation (% PfCRTDd2 control) (PfCRT^Dd2 [7]; [10]): 96 ± 2.9 % PfCRTDd2 control
PfCRT-mediated [3H]CQ transport, trans-stimulation (% PfCRTDd2 control) (PfCRT^Dd2 [7]; [11]): 95 ± 2.6 % PfCRTDd2 control
[3H]CQ transport (% PfCRTDd2 control), trans-stimulation, PfCRTDd2 (PfCRT^Dd2 [7]; [12]): 96 ± 2.9 % PfCRTDd2 control
[3H]CQ transport (% PfCRTDd2 control), trans-stimulation, PfCRTDd2 (PfCRT^Dd2 [7]; [9]): 95 ± 2.6 % PfCRTDd2 control
Uptake of [3H]CQ (% PfCRTEcu1110 control), trans-stimulation (PfCRT^Ecu1110 [8]; [test solute]i = 5 mM): 100 ± 3.2 % PfCRTEcu1110 control
Uptake of [3H]CQ (% PfCRTEcu1110 control), trans-stimulation (PfCRT^Ecu1110 [8]; [9]): 99 ± 3.2 % PfCRTEcu1110 control
PfCRT-mediated [3H]CQ transport, trans-stimulation (% PfCRTEcu1110 control) (PfCRT^Ecu1110 [8]; [10]): 98 ± 4.1 % PfCRTEcu1110 control
PfCRT-mediated [3H]CQ transport, trans-stimulation (% PfCRTEcu1110 control) (PfCRT^Ecu1110 [8]; [11]): 97 ± 2.9 % PfCRTEcu1110 control
[3H]CQ transport (% PfCRTDd2 control), trans-stimulation, PfCRTEcu1110 (PfCRT^Ecu1110 [8]; [12]): 30 ± 1.7 % PfCRTEcu1110 control
[3H]CQ transport (% PfCRTDd2 control), trans-stimulation, PfCRTEcu1110 (PfCRT^Ecu1110 [8]; [9]): 29 ± 1.4 % PfCRTEcu1110 control
Uptake of [3H]CQ (% PfNT1 control), trans-stimulation (PfNT1; [test solute]i = 5 mM): 99 ± 2.5 % PfNT1 control
Uptake of [3H]CQ (% PfNT1 control), trans-stimulation (PfNT1; [9]): 96 ± 2.2 % PfNT1 control

Source: paper PMC7413254 (Nature Communications, 2020)
